Laboratory results published in patent US20260256797A1, “NOVEL INDENONE DERIVATIVES AND USES THEREOF” (AMYLOID SOLUTION INC., priority 2022, published 2026).

Experiments:
Aβ1-42 = biological target: T1, Aβ1-42 (Homo sapiens, UniProt P05067); assay: Amyloid-beta (Aβ) disaggregation test by thioflavin-T assay; assay type: biochemical; conditions: 50 μM Aβ1-42 aggregated 24 hours, then compound 0-500 μM for 48 hours at 37° C.
T1 construct: dissolving Aβ1-42 or Tau-RD3 (Tau repeat domain 3) monomer in DMSO
T1 sequence (P05067 672-713 limits assumed): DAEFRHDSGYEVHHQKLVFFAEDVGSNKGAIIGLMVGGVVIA
Method: (§1) Each compound was dissolved in DMSO to a concentration of 10 mM. Subsequently, the compound was diluted with 6% DMSO (in DW) and used.
(§2) Specifically, amyloid-beta and tau solutions were prepared by dissolving Aβ1-42 or Tau-RD3 (Tau repeat domain 3) monomer in DMSO to a concentration of 10 mM. Thereafter, each solution was diluted with DW to a concentration of 100 μM and stored on ice. Meanwhile, thioflavin-T was dissolved in 50 mM glycine buffer (pH 8.5) to a concentration of 5 mM. Thereafter, the resulting solution was diluted with 50 mM glycine buffer (pH 8.5) to a concentration of 5 μM and stored in a dark room while light was blocked.
(§3) Each of the amyloid-beta and tau solutions prepared according to Experimental Example 1.1 was added to a 1.5 mL microcentrifuge tube to a concentration of 50 μM or 35 µM, and then a reaction was allowed to occur therebetween at 37° C. for 24 hours. Each of the 1.5 mL microcentrifuge tubes in which amyloid-beta aggregation and tau aggregation had been completed was treated with each compound at a concentrated of 500 μM to 0 μM through serial dilution, and then a further reaction was allowed to occur therebetween at 37° C. for 48 hours. 25 μL of the reaction solution in which the reaction had been completed was added to each well of a 96-well plate for fluorescence analysis, and 75 μL of the previously prepared thioflavin-T solution was added to each well. After a reaction was allowed to occur at room temperature in the dark for 5 minutes, fluorescence values were measured at excitation 450 nm and emission 485 nm by using a multi-mode microplate reader.
(§4) The fluorescence value of a group (control) treated with amyloid-beta or tau alone, followed by aggregation for 72 hours was converted into a percentage value and expressed as 100, and amyloid-beta and tau aggregates, in which aggregation had been completed upon reaction for 24 hours, were treated with each compound at each concentration and a further reaction was allowed to occur therebetween for 48 hours, and then fluorescence values thereof were measured and converted into relative values. The results thereof are illustrated in FIGS. 1 to 6 and 7 to 12. In addition, EC50 values of the compounds of the present disclosure for amyloid-beta and tau, respectively are summarized in Table 1.

[1] = biological target: Tau-RD3 (Tau repeat domain 3) (Homo sapiens, UniProt P10636); assay: Tau disaggregation test by thioflavin-T assay; assay type: biochemical; conditions: 35 μM Tau-RD3 aggregated 24 hours, then compound 0-500 μM for 48 hours at 37° C.
Sequence of Tau-RD3 (Tau repeat domain 3) (P10636 623-653 limits assumed): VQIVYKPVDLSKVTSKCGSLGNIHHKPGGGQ
Method: as §1, §2, §3, §4

| SMILES | EC50 (Aβ1-42) [µM] | EC50 [1] [µM] |
| --- | --- | --- |
| O=C1C(c2cccnc2)=C(c2ccoc2)c2ccc(OCOCc3ccccc3)cc21 [Compound 40, 6-((benzyloxy)methoxy)-3-(furan-3-yl)-2-(pyridin-3-yl)-1H-inden-1-one] | 2.1 | 67.1 |
| Cc1ncsc1C1=C(c2cccnc2)C(=O)c2cc(OCOCc3ccccc3)ccc21 [Compound 16, 6-((benzyloxy)methoxy)-3-(4-methylthiazol-5-yl)-2-(pyridin-3-yl)-1H-inden-1-one] | 12.5 | 96.5 |
| Cc1scnc1C1=C(c2cncnc2)C(=O)c2cc(OCCOc3ccc(F)c(F)c3)ccc21 [Compound 27, 6-(2-(3,4-difluorophenoxy)ethoxy)-3-(5-methylthiazol-4-yl)-2-(pyrimidin-5-yl)-1H-inden-1-one] | 237 | > 500 |
| O=C1C(c2cccnc2)=C(c2ccoc2)c2ccc(OCCOc3ccc4c(c3)OCO4)cc21 [Compound 44, 6-(2-(benzo[d][1,3]dioxol-5-yloxy)ethoxy)-3-(furan-3-yl)-2-(pyridin-3-yl)-1H-inden-1-one] | 1.8 | 2.7 |
| COc1ccc(OCCOc2ccc3c(c2)C(=O)C(c2cccnc2)=C3c2ccoc2)cc1OC [Compound 43, 6-(2-(3,4-dimethoxyphenoxy)ethoxy)-3-(furan-3-yl)-2-(pyridin-3-yl)-1H-inden-1-one] | 1.8 | 2.8 |
| Cc1scnc1C1=C(c2ccc(C(F)(F)F)cc2)C(=O)c2cc(OCCOc3ccncc3)ccc21 [Compound 35, 3-(5-methylthiazol-4-yl)-6-(2-(pyridin-4-yloxy)ethoxy)-2-(4-(trifluoromethyl)phenyl)-1H-inden-1-one] | 1 | > 500 |
| Cc1ncsc1C1=C(c2cccnc2)C(=O)c2cc(OCCOc3ccccc3)ccc21 [Compound 17, 3-(4-methylthiazol-5-yl)-6-(2-phenoxyethoxy)-2-(pyridin-3-yl)-1H-inden-1-one] | 5.7 | 19.2 |
| O=C1C(c2cccnc2)=C(c2ccoc2)c2ccc(OCCCCc3ccccc3)cc21 [Compound 39, 3-(furan-3-yl)-6-(4-phenylbutoxy)-2-(pyridin-3-yl)-1H-inden-1-one] | 2.6 | 10.7 |
| CN(C)c1ccc(OCCOc2ccc3c(c2)C(=O)C(c2cccnc2)=C3c2ccoc2)cc1 [Compound 48, 6-(2-(4-(dimethylamino)phenoxy)ethoxy)-3-(furan-3-yl)-2-(pyridin-3-yl)-1H-inden-1-one] | 2.3 | 4.1 |
| COc1ccc(COCOc2ccc3c(c2)C(=O)C(c2cccnc2)=C3c2ccoc2)cc1 [Compound 50, 3-(furan-3-yl)-6-(((4-methoxybenzyl)oxy)methoxy)-2-(pyridin-3-yl)-1H-inden-1-one] | 2.3 | 19.9 |
| O=C1C(c2cccnc2)=C(c2cccs2)c2ccc(OCCCc3ccccc3)cc21 [Compound 6, 6-(3-phenylpropoxy)-2-(pyridin-3-yl)-3-(thiophen-2-yl)-1H-inden-1-one] | 3.2 | 16.2 |
| Cc1scnc1C1=C(c2cccs2)C(=O)c2cc(OCCOc3ccccc3)ccc21 [Compound 31, 3-(5-methylthiazol-4-yl)-6-(2-phenoxyethoxy)-2-(thiophen-2-yl)-1H-inden-1-one] | 12.8 | 166 |
| Cc1ncsc1C1=C(c2cccnc2)C(=O)c2cc(OCCCc3ccncc3)ccc21 [Compound 13, 3-(4-methylthiazol-5-yl)-2-(pyridin-3-yl)-6-(3-(pyridin-4-yl)propoxy)-1H-inden-1-one] | 110 | 1.5 |
| COc1ccc(C2=C(c3ncsc3C)c3ccc(OCCc4ccccc4)cc3C2=O)cc1 [Compound 18, 2-(4-methoxyphenyl)-3-(5-methylthiazol-4-yl)-6-phenethoxy-1H-inden-1-one] | 26.1 | 242 |
| O=C1C(c2cccnc2)=C(c2ccoc2)c2ccc(OCCOc3ccc(F)c(F)c3)cc21 [Compound 47, 6-(2-(3,4-difluorophenoxy)ethoxy)-3-(furan-3-yl)-2-(pyridin-3-yl)-1H-inden-1-one] | 1.7 | 57 |
